The text below walks through data of patent US20240270762A1, “PENICILLIN-BINDING PROTEIN INHIBITORS” (priority 2021, published 2024).

The structures appear in SMILES notation. ≈ marks a conversion by molar mass, not a printed value.

The subject of the test is P. aeruginosa CDC-0090. Put plainly: microbe, parasite or virus in culture. The test is classed as cell-based. As to conditions: Pseudomonas aeruginosa, CDC0090, read-out: Minimum inhibitory concentration, P. aeruginosa CDC-0090.
For `O=C(NCCS(=O)(=O)N1CCN(C(=O)N[C@H](C(=O)N[C@H]2Cc3ccc(F)c(C(=O)O)c3OB2O)c2cc(F)c(O)c(O)c2Cl)C1=O)c1nccs1` [Example 263, (R)-3-((S)-2-(2-chloro-5-fluoro-3,4-dihydroxyphenyl)-2-(2-oxo-3-((2-(thiazole-2-carboxamido)ethyl)sulfonyl)imidazolidine-1-carboxamido)acetamido)-7-fluoro-2-hydroxy-3,4-dihydro-2H-benzo[e][1,2]oxaborinine-8-carboxylic acid], the MIC was in the range of 32 to 64 µg/mL (≈ 41.4 to 82.8 µM).

In the case of `O=C(NCCS(=O)(=O)N1CCN(C(=O)N[C@@H](C(=O)N[C@H]2Cc3ccc(F)c(C(=O)O)c3OB2O)c2cc(F)c(O)c(O)c2Cl)C1=O)Nc1cccnc1` [Example 267, (R)-3-((R)-2-(2-chloro-5-fluoro-3,4-dihydroxyphenyl)-2-(2-oxo-3-((2-(3-(pyridin-3-yl)ureido)ethyl)sulfonyl)imidazolidine-1-carboxamido)acetamido)-7-fluoro-2-hydroxy-3,4-dihydro-2H-benzo[e][1,2]oxaborinine-8-carboxylic acid], the MIC was in the range of 2 to 4 µg/mL (≈ 2.56 to 5.12 µM).

Take `O=C(NCCCS(=O)(=O)N1CCN(C(=O)N[C@H](C(=O)N[C@H]2Cc3ccc(F)c(C(=O)O)c3OB2O)c2cc(F)c(O)c(O)c2Cl)C1=O)c1cccc(O)c1` [Example 270, (R)-3-((S)-2-(2-chloro-5-fluoro-3,4-dihydroxyphenyl)-2-(3-((3-(3-hydroxybenzamido)propyl)sulfonyl)-2-oxoimidazolidine-1-carboxamido)acetamido)-7-fluoro-2-hydroxy-3,4-dihydro-2H-benzo[e][1,2]oxaborinine-8-carboxylic acid]: the MIC lay in the range of 32 to 64 µg/mL (≈ 40.2 to 80.4 µM).

On to `O=C(CN1CCN(C(=O)NC(C(=O)N[C@H]2Cc3ccc(F)c(C(=O)O)c3OB2O)c2cc(F)c(O)c(O)c2Cl)C(=O)C1=O)Nc1cccc(O)c1` (stereo partly drawn) [Example 231, (3R)-3-(2-(2-chloro-5-fluoro-3,4-dihydroxyphenyl)-2-(4-(2-((3-hydroxyphenyl)amino)-2-oxoethyl)-2,3-dioxopiperazine-1-carboxamido)acetamido)-7-fluoro-2-hydroxy-3,4-dihydro-2H-benzo[e][1,2]oxaborinine-8-carboxylic acid], for which the MIC was in the range of 2 to 4 µg/mL (≈ 2.73 to 5.47 µM).

For the compound `O=C(CN1CCN(C(=O)NC(C(=O)N[C@H]2Cc3ccc(F)c(C(=O)O)c3OB2O)c2cc(F)c(O)c(O)c2Cl)C(=O)C1=O)Nc1cccnc1` (stereo partly drawn) [Example 234, (3R)-3-(2-(2-chloro-5-fluoro-3,4-dihydroxyphenyl)-2-(2,3-dioxo-4-(2-oxo-2-(pyridin-3-ylamino)ethyl)piperazine-1-carboxamido)acetamido)-7-fluoro-2-hydroxy-3,4-dihydro-2H-benzo[e][1,2]oxaborinine-8-carboxylic acid], the MIC lay in the range of 2 to 4 µg/mL (≈ 2.79 to 5.58 µM).

For `O=C(CN1CCN(C(=O)NC(C(=O)N[C@H]2Cc3ccc(F)c(C(=O)O)c3OB2O)c2cc(F)c(O)c(O)c2Cl)C(=O)C1=O)NCc1ccccc1` (some centres unmarked) [Example 238], the MIC was 2 to 4 µg/mL (≈ 2.74 to 5.48 µM).

With `O=C(CN1CCN(C(=O)NC(C(=O)N[C@H]2Cc3ccc(F)c(C(=O)O)c3OB2O)c2cc(F)c(O)c(O)c2Cl)C(=O)C1=O)Nc1ccncc1` (stereo partly drawn) [Example 233, (3R)-3-(2-(2-chloro-5-fluoro-3,4-dihydroxyphenyl)-2-(2,3-dioxo-4-(2-oxo-2-(pyridin-4-ylamino)ethyl)piperazine-1-carboxamido)acetamido)-7-fluoro-2-hydroxy-3,4-dihydro-2H-benzo[e][1,2]oxaborinine-8-carboxylic acid], the MIC was less than 1 µg/mL.

For `O=C(NCCCN1CCN(C(=O)N[C@H](C(=O)N[C@H]2Cc3ccc(F)c(C(=O)O)c3OB2O)c2cc(F)c(O)c(O)c2Cl)C1=O)c1cccc(O)c1` [Example 254, (R)-3-((S)-2-(2-chloro-5-fluoro-3,4-dihydroxyphenyl)-2-(3-(3-(3-hydroxybenzamido)propyl)-2-oxoimidazolidine-1-carboxamido)acetamido)-7-fluoro-2-hydroxy-3,4-dihydro-2H-benzo[e][1,2]oxaborinine-8-carboxylic acid], the MIC is more than 128 µg/mL.

In the case of `O=C(CN1CCN(C(=O)NC(C(=O)N[C@H]2Cc3ccc(F)c(C(=O)O)c3OB2O)c2cc(F)c(O)c(O)c2Cl)C(=O)C1=O)NCc1cccc(O)c1` (stereo partly drawn) [Example 237, (3R)-3-(2-(2-chloro-5-fluoro-3,4-dihydroxyphenyl)-2-(4-(2-((3-hydroxybenzyl)amino)-2-oxoethyl)-2,3-dioxopiperazine-1-carboxamido)acetamido)-7-fluoro-2-hydroxy-3,4-dihydro-2H-benzo[e][1,2]oxaborinine-8-carboxylic acid], the MIC is 2 to 4 µg/mL (≈ 2.68 to 5.36 µM).

Turning to `CN(CCN1CCN(C(=O)N[C@@H](C(=O)N[C@H]2Cc3ccc(F)c(C(=O)O)c3OB2O)c2cc(F)c(O)c(O)c2Cl)C(=O)C1=O)Cc1nccs1` [Example 200, (R)-3-((R)-2-(2-chloro-5-fluoro-3,4-dihydroxyphenyl)-2-(4-(2-(methyl(thiazol-2-ylmethyl)amino)ethyl)-2,3-dioxopiperazine-1-carboxamido)acetamido)-7-fluoro-2-hydroxy-3,4-dihydro-2H-benzo[e][1,2]oxaborinine-8-carboxylic acid], the MIC was less than 1 µg/mL.

Take `O=C(O)c1c(F)ccc2c1OB(O)[C@@H](NC(=O)C(NC(=O)N1CCN(CCNC(=O)[C@@H]3CCCN3)C1=O)c1cc(F)c(O)c(O)c1Cl)C2` (stereo partly drawn) [Example 248, (3R)-3-(2-(2-chloro-5-fluoro-3,4-dihydroxyphenyl)-2-(2-oxo-3-(2-((S)-pyrrolidine-2-carboxamido)ethyl)imidazolidine-1-carboxamido)acetamido)-7-fluoro-2-hydroxy-3,4-dihydro-2H-benzo[e][1,2]oxaborinine-8-carboxylic acid]: the MIC fell in the range of 8 to 16 µg/mL (≈ 11.5 to 23 µM).

In the case of `O=C(NCCN1CCN(C(=O)NC(C(=O)N[C@H]2Cc3ccc(F)c(C(=O)O)c3OB2O)c2cc(F)c(O)c(O)c2Cl)C1=O)c1ccccc1` (stereo partly drawn) [Example 242, (3R)-3-(2-(3-(2-benzamidoethyl)-2-oxoimidazolidine-1-carboxamido)-2-(2-chloro-5-fluoro-3,4-dihydroxyphenyl)acetamido)-7-fluoro-2-hydroxy-3,4-dihydro-2H-benzo[e][1,2]oxaborinine-8-carboxylic acid], the MIC is less than 1 µg/mL.

Take `O=C(NCCCN1CCN(C(=O)NC(C(=O)N[C@H]2Cc3ccc(F)c(C(=O)O)c3OB2O)c2cc(F)c(O)c(O)c2Cl)C(=O)C1=O)Nc1cccc(O)c1` (stereo partly drawn) [Example 206, (3R)-3-(2-(2-chloro-5-fluoro-3,4-dihydroxyphenyl)-2-(4-(3-(3-(3-hydroxyphenyl)ureido)propyl)-2,3-dioxopiperazine-1-carboxamido)acetamido)-7-fluoro-2-hydroxy-3,4-dihydro-2H-benzo[e][1,2]oxaborinine-8-carboxylic acid]: the MIC is less than 1 µg/mL.

`O=C(NCCN1CCN(C(=O)NC(C(=O)N[C@H]2Cc3ccc(F)c(C(=O)O)c3OB2O)c2cc(F)c(O)c(O)c2Cl)C(=O)C1=O)c1cccc(O)c1` (stereo partly drawn) [Example 215, (3R)-3-(2-(2-chloro-5-fluoro-3,4-dihydroxyphenyl)-2-(4-(2-(3-hydroxybenzamido)ethyl)-2,3-dioxopiperazine-1-carboxamido)acetamido)-7-fluoro-2-hydroxy-3,4-dihydro-2H-benzo[e][1,2]oxaborinine-8-carboxylic acid]: the MIC was less than 1 µg/mL.

As for `O=C(NCCCN1CCN(C(=O)N[C@H](C(=O)N[C@H]2Cc3ccc(F)c(C(=O)O)c3OB2O)c2cc(F)c(O)c(O)c2Cl)C1=O)c1ccccc1` [Example 252, (R)-3-((S)-2-(3-(3-benzamidopropyl)-2-oxoimidazolidine-1-carboxamido)-2-(2-chloro-5-fluoro-3,4-dihydroxyphenyl)acetamido)-7-fluoro-2-hydroxy-3,4-dihydro-2H-benzo[e][1,2]oxaborinine-8-carboxylic acid], the MIC is more than 128 µg/mL.

Regarding `O=C(CN1CCN(C(=O)NC(C(=O)N[C@H]2Cc3ccc(F)c(C(=O)O)c3OB2O)c2cc(F)c(O)c(O)c2Cl)C(=O)C1=O)Nc1nccs1` (stereo partly drawn) [Example 235, (3R)-3-(2-(2-chloro-5-fluoro-3,4-dihydroxyphenyl)-2-(2,3-dioxo-4-(2-oxo-2-(thiazol-2-ylamino)ethyl)piperazine-1-carboxamido)acetamido)-7-fluoro-2-hydroxy-3,4-dihydro-2H-benzo[e][1,2]oxaborinine-8-carboxylic acid], the MIC was in the range of 2 to 4 µg/mL (≈ 2.77 to 5.53 µM).

Take `O=C(CN1CCN(C(=O)N[C@@H](C(=O)N[C@H]2Cc3ccc(F)c(C(=O)O)c3OB2O)c2cc(F)c(O)c(O)c2Cl)C(=O)C1=O)NCc1ccncc1` [Example 239, (R)-3-((R)-2-(2-chloro-5-fluoro-3,4-dihydroxyphenyl)-2-(2,3-dioxo-4-(2-oxo-2-((pyridin-4-ylmethyl)amino)ethyl)piperazine-1-carboxamido)acetamido)-7-fluoro-2-hydroxy-3,4-dihydro-2H-benzo[e][1,2]oxaborinine-8-carboxylic acid]: the MIC lay in the range of 2 to 4 µg/mL (≈ 2.74 to 5.47 µM).

As to `O=C(CN1CCN(C(=O)NC(C(=O)N[C@H]2Cc3ccc(F)c(C(=O)O)c3OB2O)c2cc(F)c(O)c(O)c2Cl)C(=O)C1=O)Nc1ccccc1` (stereo partly drawn) [Example 232, (3R)-3-(2-(2-chloro-5-fluoro-3,4-dihydroxyphenyl)-2-(2,3-dioxo-4-(2-oxo-2-(phenylamino)ethyl)piperazine-1-carboxamido)acetamido)-7-fluoro-2-hydroxy-3,4-dihydro-2H-benzo[e][1,2]oxaborinine-8-carboxylic acid], the MIC fell in the range of 2 to 4 µg/mL (≈ 2.79 to 5.59 µM).

Regarding `O=C(NCCN1CCN(C(=O)NC(C(=O)N[C@H]2Cc3ccc(F)c(C(=O)O)c3OB2O)c2cc(F)c(O)c(O)c2Cl)C1=O)c1cccnc1` (stereo partly drawn) [Example 246, (3R)-3-(2-(2-chloro-5-fluoro-3,4-dihydroxyphenyl)-2-(3-(2-(nicotinamido)ethyl)-2-oxoimidazolidine-1-carboxamido)acetamido)-7-fluoro-2-hydroxy-3,4-dihydro-2H-benzo[e][1,2]oxaborinine-8-carboxylic acid], the MIC lay in the range of 2 to 4 µg/mL (≈ 2.85 to 5.69 µM).

With `O=C(CN1CCN(C(=O)N[C@@H](C(=O)N[C@H]2Cc3ccc(F)c(C(=O)O)c3OB2O)c2cc(F)c(O)c(O)c2Cl)C(=O)C1=O)NCc1nccs1` [Example 241, (R)-3-((R)-2-(2-chloro-5-fluoro-3,4-dihydroxyphenyl)-2-(2,3-dioxo-4-(2-oxo-2-((thiazol-2-ylmethyl)amino)ethyl)piperazine-1-carboxamido)acetamido)-7-fluoro-2-hydroxy-3,4-dihydro-2H-benzo[e][1,2]oxaborinine-8-carboxylic acid], the MIC was in the range of 2 to 4 µg/mL (≈ 2.71 to 5.43 µM).
